This is an account of results in patent publication US20230174530A1, “N-(PHENYLAMINOCARBONYL) TETRAHYDRO-ISOQUINOLINES AND RELATED COMPOUNDS AS MODULATORS OF GPR65” (PATHIOS THERAPEUTICS LIMITED, priority 2020, published 2023).

Molecules are shown by their SMILES. pIC50: −log10 of the molar value. Some results are limits rather than exact numbers.

In the assay the target is T1, human recombinant GPR65 (Homo sapiens, UniProt Q8IYL9).
T1 construct: host or cells: 1321N1 human astrocytoma cells (1321N1-hrGPR65)
T1 sequence (Q8IYL9 whole entry): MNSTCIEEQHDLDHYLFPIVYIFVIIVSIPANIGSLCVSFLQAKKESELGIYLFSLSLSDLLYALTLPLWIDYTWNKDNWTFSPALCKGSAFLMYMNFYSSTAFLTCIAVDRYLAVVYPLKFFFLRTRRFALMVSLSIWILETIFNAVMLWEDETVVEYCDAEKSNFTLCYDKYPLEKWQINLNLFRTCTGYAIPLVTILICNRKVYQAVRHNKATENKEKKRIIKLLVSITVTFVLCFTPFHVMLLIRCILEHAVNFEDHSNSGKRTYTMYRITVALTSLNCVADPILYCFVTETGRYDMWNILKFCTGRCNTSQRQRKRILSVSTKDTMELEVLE
Kind of assay: Human GPR65 cAMP HTRF antagonist assay. It counts as cell-based. Particulars: 1321N1-hrGPR65 cells stimulated at assay pH 7.2; suppression of cAMP rise; read-out: hGPR65 IC50. Here is the method: Human GPR65 Cyclic Adenosine Monophosphate (cAMP) Homogeneous Time Resolved Fluorescence (HTRF) Antagonist Assay Procedure
IC50 data was obtained by the following procedure:
1321N1 human astrocytoma cells stably expressing human recombinant GPR65 (1321N1-hrGPR65 cells, EuroscreenFast) were cultured according to the vendor's instructions.
Compounds were tested for their ability to antagonise GPR65, through measuring the concentration of cytoplasmic cAMP following treatment of the cells at a pH of 7.2 to activate GPR65 signalling and addition of the compound to be tested. The extent to which the expected rise in cAMP concentration upon GPR65 activation was suppressed by the added compound is indicative of its potency. The assay was carried out according to EuroscreenFast assay methodology as follows.
On the day of the assay, test compounds were added to 384-well, low volume, white microtiter plates by acoustic dispensing. KRH buffer (5 mM KCl, 1.25 mM MgSO4, 124 mM NaCl, 25 mM HEPES, 13.3 mM Glucose, 1.25 mM KH2PO4 and 1.45 mM CaCl2) was adjusted to pH 6.5, pH 7.6 and pH 8.4 by adding NaOH. 1321N1-hGPR65 cells were rapidly thawed and diluted in KRH, pH 7.6 prior to centrifugation at 300×g for 5 min and resuspension in assay buffer (KRH, pH 7.6, supplemented with 1 mM 3-isobutyl-1-methylxanthine (IBMX) and 200 μM ethylenediaminetetraacetic acid (EDTA)). Cells were added to assay plates at a density of 2,000 cells per well in a volume of 5 μl. Assay plates were briefly centrifuged at 100×g and then incubated at room temperature for 30 min. Cells were stimulated by the addition of 5 μL KRH, pH 6.5, to achieve an assay pH of 7.2, while control wells received 5 μl KRH, pH 8.4 to achieve an assay pH of 7.9. Assay plates were briefly centrifuged at 100×g and then incubated at room temperature for 30 min.
Accumulation of cAMP was detected by cAMP HTRF kit (Cisbio). d2-labeled cAMP and cryptate-labeled anti-cAMP antibody in Lysis and Detection Buffer (Cisbio) were added to assay plates, and the plates were incubated at room temperature for 1 h. HTRF measurements were performed using a Pherastar FSX instrument. Acceptor and donor emission signals were measured at 665 nm and 620 nm, respectively, and HTRF ratios were calculated as signal665 nm/signal620 nm×10^4. Data were normalised to high and low control values and fitted with 4-parameter logistic regression to determine hGPR65 IC50 values for the test compounds, which are shown in Table 1.
Consider `CC1c2ccc(F)cc2CCN1C(=O)Nc1ccc(Cl)c(Cl)c1` (stereo not drawn) [Compound 93, N-(3,4-Dichlorophenyl)-6-fluoro-1-methyl-3,4-dihydroisoquinoline-2(1H)-carboxamide], for which the pIC50 is above 6.30. On to `O=C(Nc1ccc(C(F)(F)F)c(Cl)c1)N1CCc2cc(C(F)(F)F)ccc2C1` [Compound 72, N-(3-Chloro-4-(trifluoromethyl)phenyl)-6-(trifluoromethyl)-3,4-dihydroisoquinoline-2(1H)-carboxamide], for which the negative logarithm of the IC50 (pIC50) is below 5.30.

Consider `O=C(Nc1ccc(Cl)c(Cl)c1)N1CCc2ccccc2C1` [Compound 81, N-(3,4-Dichlorophenyl)-3,4-dihydroisoquinoline-2(1H)-carboxamide], for which the negative logarithm of the IC50 (pIC50) was 5.30 to 6.30. With `O=C(Nc1ccc(Cl)c(Cl)c1)N1CCc2cc(F)ccc2C1` [Compound 42, N-(3,4-Dichlorophenyl)-6-fluoro-3,4-dihydroisoquinoline-2(1H)-carboxamide] the figure was above 6.30; with `O=C(Nc1ccc(C(F)(F)F)c(Cl)c1)N1CCc2cc(Cl)ccc2C1` [Compound 54, 6-Chloro-N-(3-chloro-4-(trifluoromethyl)phenyl)-3,4-dihydroisoquinoline-2(1H)-carboxamide], above 6.30; with `O=C(Nc1ccc(Cl)c(Cl)c1)N1CCc2cn3ccnc3cc2C1` [Compound 115, N-(3,4-Dichlorophenyl)-6,7-dihydroimidazo[1,2-b][2,6]naphthyridine-8(9H)-carboxamide], below 5.30. Take `N#Cc1cccc2c1CCN(C(=O)Nc1ccc(Cl)c(C(F)(F)F)c1)C2` [Compound 137, N-(4-Chloro-3-(trifluoromethyl)phenyl)-5-cyano-3,4-dihydroisoquinoline-2(1H)-carboxamide]: the pIC50 was 5.30 to 6.30. As for `CS(=O)(=O)c1ccc2c(c1)CCN(C(=O)Nc1ccc(Cl)c(Cl)c1)C2` [Compound 125, N-(3,4-Dichlorophenyl)-6-(methylsulfonyl)-3,4-dihydroisoquinoline-2(1H)-carboxamide], the figure is below 5.30. With `O=C(Nc1ccc(Cl)c(Cl)c1)N1CCc2ncccc2C1` [Compound 20, N-(3,4-Dichlorophenyl)-7,8-dihydro-1,6-naphthyridine-6(5H)-carboxamide], the pIC50 is below 5.30.

Consider `O=C(Nc1ccc(Cl)c(Cl)c1)N1CCc2nocc2C1` [Compound 98, N-(3,4-Dichlorophenyl)-6,7-dihydroisoxazolo[4,3-c]pyridine-5(4H)-carboxamide], for which the negative logarithm of the IC50 (pIC50) was 5.30 to 6.30.

As to `Cc1ccc2c(c1)CCN(C(=O)Nc1ccc(Cl)c(Cl)c1)C2` [Compound 135, N-(3,4-Dichlorophenyl)-6-methyl-3,4-dihydroisoquinoline-2(1H)-carboxamide], the negative logarithm of the IC50 (pIC50) is 5.30 to 6.30.

`O=C(Nc1ccc(Cl)c(Cl)c1)N1CCc2cc(F)c(F)cc2C1` [Compound 106, N-(3,4-Dichlorophenyl)-6,7-difluoro-3,4-dihydroisoquinoline-2(1H)-carboxamide]: the pIC50 is above 6.30. As for `O=C(Nc1ccc(Cl)c(Cl)c1)N1CCc2ccncc2C1` [Compound 15, N-(3,4-Dichlorophenyl)-3,4-dihydro-2,7-naphthyridine-2(1H)-carboxamide], the figure is 5.30 to 6.30; as for `O=C(Nc1ccc(Cl)c(C(F)(F)F)c1)N1CCc2ccccc2C1` [Compound 11, N-(4-Chloro-3-(trifluoromethyl)phenyl)-3,4-dihydroisoquinoline-2(1H)-carboxamide], 5.30 to 6.30; as for `O=C(Nc1ccc(Cl)c(Cl)c1F)N1CCc2cc(=O)[nH]cc2C1` [Compound 118, N-(3,4-Dichloro-2-fluorophenyl)-6-oxo-3,4,6,7-tetrahydro-2,7-naphthyridine-2(1H)-carboxamide], 5.30 to 6.30. Turning to `O=C(Nc1ccc(Cl)c(Cl)c1)N1CCc2ccc(Cl)cc2C1` [Compound 138, 7-Chloro-N-(3,4-dichlorophenyl)-3,4-dihydroisoquinoline-2(1H)-carboxamide], the pIC50 was 5.30 to 6.30. As to `O=C(Nc1ccc(C(F)(F)F)c(Cl)c1)N1CCc2cc(=O)[nH]cc2C1` [Compound 74, N-(3-Chloro-4-(trifluoromethyl)phenyl)-6-oxo-3,4,6,7-tetrahydro-2,7-naphthyridine-2(1H)-carboxamide], the pIC50 was above 6.30. With `O=C(Nc1ccc(C(F)(F)F)c(Cl)c1)N1CCc2ccnc(Cl)c2C1` [Compound 97, 8-Chloro-N-(3-chloro-4-(trifluoromethyl)phenyl)-3,4-dihydro-2,7-naphthyridine-2(1H)-carboxamide] the figure was below 5.30. `N#Cc1cc2c(cn1)CCN(C(=O)Nc1ccc(Cl)c(Cl)c1)C2` [Compound 103, 7-Cyano-N-(3,4-dichlorophenyl)-3,4-dihydro-2,6-naphthyridine-2(1H)-carboxamide]: the pIC50 was 5.30 to 6.30. With `Cc1ccc2c(c1)CN(C(=O)Nc1ccc(C(F)(F)F)c(Cl)c1)CC2` [Compound 35, N-(3-Chloro-4-(trifluoromethyl)phenyl)-7-methyl-3,4-dihydroisoquinoline-2(1H)-carboxamide] the figure was 5.30 to 6.30. For `O=C(Nc1ccc(Cl)c(Cl)c1)N1CCc2c(ccnc2F)C1` [Compound 120, N-(3,4-Dichlorophenyl)-5-fluoro-3,4-dihydro-2,6-naphthyridine-2(1H)-carboxamide], the negative logarithm of the IC50 (pIC50) was above 6.30.

For the compound `O=C(Nc1ccc(C(F)(F)F)c(Cl)c1)N1CCc2ncncc2C1` [Compound 6, N-(3-Chloro-4-(trifluoromethyl)phenyl)-7,8-dihydropyrido[4,3-d]pyrimidine-6(5H)-carboxamide], the negative logarithm of the IC50 (pIC50) was 5.30 to 6.30. As for `COc1ccc2c(c1)CCN(C(=O)Nc1ccc(C(F)(F)F)c(Cl)c1)C2` [Compound 67, N-(3-Chloro-4-(trifluoromethyl)phenyl)-6-methoxy-3,4-dihydroisoquinoline-2(1H)-carboxamide], the figure is 5.30 to 6.30.

For `O=C(Nc1ccc(C(F)(F)F)c(Cl)c1)N1CCc2cnc(F)cc2C1` [Compound 87, N-(3-Chloro-4-(trifluoromethyl)phenyl)-7-fluoro-3,4-dihydro-2,6-naphthyridine-2(1H)-carboxamide], the negative-log IC50 (pIC50) is 5.30 to 6.30.

As to `O=C(Nc1ccc(Cl)c(Cl)c1)N1CCc2cc(-c3ccsc3)ccc2C1` [Compound 128, N-(3,4-Dichlorophenyl)-6-(thiophen-3-yl)-3,4-dihydroisoquinoline-2(1H)-carboxamide], the pIC50 was below 5.30. For `COC(=O)c1ccc2c(c1)CN(C(=O)Nc1ccc(Cl)c(Cl)c1)CC2` [Compound 131, Methyl 2-((3,4-dichlorophenyl)carbamoyl)-1,2,3,4-tetrahydroisoquinoline-7-carboxylate], the negative-log IC50 (pIC50) was 5.30 to 6.30. With `O=C(Nc1ccc(C(F)(F)F)c(Cl)c1)N1CCc2ccc(C(F)(F)F)cc2C1` [Compound 71, N-(3-Chloro-4-(trifluoromethyl)phenyl)-7-(trifluoromethyl)-3,4-dihydroisoquinoline-2(1H)-carboxamide] the figure was 5.30 to 6.30; with `N#Cc1ccc2c(c1)CCN(C(=O)Nc1ccc(Cl)c(Cl)c1)C2` [Compound 37, 6-Cyano-N-(3,4-dichlorophenyl)-3,4-dihydroisoquinoline-2(1H)-carboxamide], above 6.30. On to `N#Cc1ccc2c(c1)CN(C(=O)Nc1ccc(Cl)c(C(F)(F)F)c1)CC2` [Compound 50, N-(4-Chloro-3-(trifluoromethyl)phenyl)-7-cyano-3,4-dihydroisoquinoline-2(1H)-carboxamide], for which the negative-log IC50 (pIC50) is 5.30 to 6.30. As for `O=C(Nc1ccc(Cl)c(C(F)(F)F)c1)N1CCc2cc(=O)[nH]cc2C1` [Compound 89, N-(4-chloro-3-(trifluoromethyl)phenyl)-6-oxo-3,4,6,7-tetrahydro-2,7-naphthyridine-2(1H)-carboxamide], the figure is 5.30 to 6.30; as for `O=C(Nc1ccc(Cl)c(Cl)c1)N1CCc2cc3nccn3cc2C1` [Compound 110, N-(3,4-Dichlorophenyl)-8,9-dihydroimidazo[1,2-b][2,7]naphthyridine-7(6H)-carboxamide], below 5.30; as for `COc1ccc2c(c1)CN(C(=O)Nc1ccc(Cl)c(Cl)c1)CC2` [Compound 61, N-(3,4-Dichlorophenyl)-7-methoxy-3,4-dihydroisoquinoline-2(1H)-carboxamide], 5.30 to 6.30. Consider `O=C(Nc1ccc(C(F)(F)F)c(Cl)c1)N1CCc2cc(F)ncc2C1` [Compound 104, N-(3-chloro-4-(trifluoromethyl)phenyl)-6-fluoro-3,4-dihydro-2,7-naphthyridine-2(1H)-carboxamide], for which the pIC50 was above 6.30.
